This is an account of results in patent US11231416B2, “Virus-like particle (VLP) based small molecule-protein interaction trap” (VIB VZW, priority 2015, dated 2022).

In the test the target is T1, HSD17B4 (Homo sapiens, UniProt P51659).
T1 construct: endogenous in cells; host or cells: HEK293T
T1 sequence (P51659 1-736): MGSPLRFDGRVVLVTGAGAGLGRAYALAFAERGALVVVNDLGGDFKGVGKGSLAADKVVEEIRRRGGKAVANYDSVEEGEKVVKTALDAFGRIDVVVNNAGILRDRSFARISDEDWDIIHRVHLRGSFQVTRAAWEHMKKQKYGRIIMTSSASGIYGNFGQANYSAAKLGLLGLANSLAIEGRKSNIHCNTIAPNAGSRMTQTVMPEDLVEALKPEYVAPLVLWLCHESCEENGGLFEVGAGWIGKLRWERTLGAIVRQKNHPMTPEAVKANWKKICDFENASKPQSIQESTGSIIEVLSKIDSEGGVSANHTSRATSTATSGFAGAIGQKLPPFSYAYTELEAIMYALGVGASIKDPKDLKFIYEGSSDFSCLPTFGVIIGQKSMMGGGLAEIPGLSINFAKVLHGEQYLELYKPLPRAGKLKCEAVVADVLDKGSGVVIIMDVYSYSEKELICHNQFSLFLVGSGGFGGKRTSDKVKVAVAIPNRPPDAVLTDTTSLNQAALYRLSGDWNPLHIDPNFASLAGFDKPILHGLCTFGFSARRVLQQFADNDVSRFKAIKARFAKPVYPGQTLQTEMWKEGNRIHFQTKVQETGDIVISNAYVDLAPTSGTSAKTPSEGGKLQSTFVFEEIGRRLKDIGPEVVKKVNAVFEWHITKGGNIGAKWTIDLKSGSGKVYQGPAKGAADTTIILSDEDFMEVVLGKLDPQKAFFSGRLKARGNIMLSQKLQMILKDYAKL
Description: Binary MASPIT assay. The format is cell-based. Conditions: HEK293T cells, 100 ng/ml leptin, 24 hours; FIG. 4. The protocol: The binding of HSD17B4 to tamoxifen was further confirmed using the MASPIT technology. The binary MASPIT assay was essentially performed as described before (Risseeuw et al., 2013). Briefly, HEK293T cells were seeded in black tissue-culture treated 96-well plates at 10.000 cells/well in 100 μl culture medium (DMEM supplemented with 10% fetal calf serum), and grown at 37° C., 8% CO2. Twenty-four hours later cells were transfected with a combination of the pCLG-eDHFR plasmid (Risseeuw et al., 2013), the pMG1-HSD17B4 construct and the pXP2d2-rPAP1-luciferase reporter (Caligiuri et al., 2006). The pMG1-HSD17B4 construct was generated by Gateway transfer of the full size HSD17B4 ORF, obtained as an entry clone in the hORFeome collection, into the Gateway compatible pMG1 prey destination vector as described earlier (Lievens et al., 2009). Twenty-four hours after transfection, cells were either left unstimulated or treated with 100 ng/ml leptin, with or without addition of MTX-PEG6-tamoxifen. Another 24 hours later, luciferase activity was assayed using the Luciferase Assay System kit (Promega).

`CCC(=C(c1ccccc1)c1ccc(OCCN(C)Cc2cn(CCOCCOCCOCCOCCOCCNC(=O)CCC(NC(=O)c3ccc(N(C)Cc4cnc5nc(N)nc(N)c5n4)cc3)C(=O)O)nn2)cc1)c1ccccc1` (stereo not shown) [MTX-PEG6-tamoxifen]: the “luciferase activity (MASPIT signal)” value is listed as “increased luciferase activity in a dose-dependent manner”.
